Data published in patent US11015061B2, “Phthalocyanine-based compound and uses of same” (YAMAMOTO CHEMICALS, INC., priority 2017, dated 2021).

Columns and labels:
Assay type in all cases: physicochemical
[1] = Absorption spectrum of toluene solution (maximum absorption, gram absorption coefficient); conditions: for gram absorption coefficient: at maximum absorption
Description: A toluene solution of the compound obtained in this way had maximum absorption at 734.0 nm, and the gram absorption coefficient thereof was 1.21×10^5 mL/g·cm. The absorption spectrum chart thereof is illustrated in FIG. 1.

[2] = Solubility in organic solvent (cyclopentanone); conditions: about 10 wt % dispersion, room temperature, 0.2 μm filter; no residue = 10 wt % or more
Description: The solubility of the phthalocyanine compound with respect to cyclopentanone was measured by the following method.
Cyclopentanone was added to about 1 g of the phthalocyanine compound such that the total weight thereof became about 10 g, and the obtained solution was irradiated with ultrasonic waves for about 30 minutes and then stirred for 2 hours at room temperature, thereby preparing a dispersion liquid of about 10 wt %.
The dispersion liquid was filtered through a membrane filter (0.2 μm), the substance obtained by filtration was dried for 1 hour in a drier at 60° C., and then the weight of the substance obtained by filtration was measured.
The solubility of the phthalocyanine compound in a solvent is expressed by the following equation. Solubility (wt %)=(W0−W1)/W0
W0 represents the correct weight of the phthalocyanine not yet being treated, and W1 represents the weight of the substance obtained by filtration (dissolved phthalocyanine compound residue) having been dried.

[3] = Light fastness test of heat ray shielding film; conditions: xenon light 200 hours at 550 W/h, absorbance integrated 400 to 900 nm
Description: (§1) In the evaluation test, the release film was peeled from the produced heat ray shielding film, then the heat ray shielding film was compressed on a 5 cm×5 cm×3 mm (thickness) glass plate, and a test piece created in this way was used.
(§2) For a light fastness test, the absorption spectrum of the test piece was measured using a spectrophotometer (produced by Hitachi, Ltd.: Spectrophotometer U-3500) and adopted as a spectrum before light fastness test. Then, the test piece used for measuring the spectrum before test was irradiated with light for 200 hours at 550 W/h by using a xenon light fastness tester (produced by Toyo Seiki Seisaku-sho, Ltd.: SUNTEST XLS+). The absorption spectrum of the test piece irradiated with light was measured using the spectrophotometer and adopted as a spectrum after light fastness test.
(§3) In each of the spectra measured as above before and after the light fastness⋅heat resistance test, the values of absorbance within a range of 400 to 900 nm were integrated, and a difference between the integrated value before the light fastness⋅heat resistance test and the integrated value after the light fastness⋅heat resistance test was calculated.
(§4) The difference ΔE between the absorbance before the light fastness⋅heat resistance test and the absorbance after the light fastness⋅heat resistance test is expressed by the following equation. ΔE (%)={E(400 to 900 nm in E1)−E(400 to 900 nm in E2)}/E(400 to 900 nm in E1)×100
(§5) E1 represents the spectrum before test, E2 represents the spectrum after test, and Σ represents integration of the values of absorbance.
(§6) The larger the value of ΔE, the greater the spectrum change between before and after the light fastness⋅heat resistance test.

[4] = Heat resistance test of heat ray shielding film; conditions: 200 hours at 100° C., absorbance integrated 400 to 900 nm
Description: as §1
(§7) For a heat resistance test, the test piece used for measuring the spectrum before test as described above was treated with heat for 200 hours at a temperature of 100° C. in a thermostat (produced by Yamato Scientific co., ltd.: IG400). By using the spectrophotometer, the absorption spectrum of the heat-treated test piece was measured and adopted as a spectrum after heat resistance test.
as §3, §4, §5, §6

[5] = Tts of laminated glass sample; conditions: 0.76 mm PVB interlayer with 0.013 g compound per 100 g resin, JIS R3106
Description: (§8) The phthalocyanine-based compound (Specific Example (1)-30) produced in Example 1 (0.013 g) was dissolved in 40 g of triethylene glycol-di-2-ethylhexanoate as an organic ester plasticizer. The obtained solution was added to 100 g of a polyvinyl butyral resin (trade name: BH-3, produced by SEKISUI CHEMICAL CO., LTD.), thoroughly melted and kneaded using a mixing roll, and extruded using an extruder, thereby obtaining an interlayer having a thickness of 0.76 mm.
(§9) The interlayer was cut in size of 100 mm×100 mm, interposed between heat ray absorbing glass plates (100 mm (length)×100 mm (width)×2.0 mm (thickness)) prepared based on JIS R3208, put into a rubber bag, and deaerated for 20 minutes at a degree of vacuum of 2.6 kPa. Then, the deaerated laminate was moved into an oven and further hold for 30 minutes at 90° C. to vacuum press. Thereafter, the laminate was compressed for 20 minutes in an autoclave under the condition of a temperature of 130° C. and a pressure of 1.3 MPa, thereby obtaining a laminated glass sample.
By using U-3500 type recording spectrophotometer produced by Hitachi, Ltd. as a measurement instrument, Tts of the laminated glass samples was measured based on JIS R3106 “Testing method for transmittance, reflectance, emissivity, and solar heat gain coefficient of flat glasses”.

[6] = Light fastness test of laminated glass; conditions: xenon light 200 hours at 550 W/h, absorbance integrated 400 to 900 nm
Description: as §8, §9
as §2, with “laminated glass” for “test piece”
as §3, §4
(§10) E1 represents the spectrum before test, E2 represents the spectrum after test, and Σ represents integration of values of absorbance. The larger the value of ΔE, the greater the spectrum change between before and after the light fastness⋅heat resistance test.

[7] = Heat resistance test of laminated glass; conditions: 200 hours at 100° C., absorbance integrated 400 to 900 nm
Description: as §8, §9
as §7, with “laminated glass” for “test piece”
as §3, §4, §10

maximum absorption [1] [nm]	gram absorption coefficient [1] [mL/g/cm]	Solubility to cyclopentanone (wt %) [2] [% wt %]	ΔE (%) Light fastness [3] [%]	ΔE (%) Heat resistance [4] [%]	Tts [5] [%]	ΔE (%) Light fastness [6] [%]	ΔE (%) Heat resistance [7] [%]	SMILES
735.0	71600	≥10	5	3	51.7	4	2	[O]=[V+2].c1ccc(OCCOCCCCc2ccc(CCCCOCCOc3ccccc3)c3c2-c2nc-3nc3[n-]c(nc4nc(nc5[n-]c(n2)c2c(CCCCOCCOc6ccccc6)ccc(CCCCOCCOc6ccccc6)c52)-c2c(CCCCOCCOc5ccccc5)ccc(CCCCOCCOc5ccccc5)c2-4)c2c(CCCCOCCOc4ccccc4)ccc(CCCCOCCOc4ccccc4)c32)cc1 [Specific Example (1)-38]
734.5	67500	≥10	3	4	52.9	3	3	COc1cccc(OC)c1OCCCCc1ccc(CCCCOc2c(OC)cccc2OC)c2c1-c1nc-2nc2[n-]c(nc3nc(nc4[n-]c(n1)c1c(CCCCOc5c(OC)cccc5OC)ccc(CCCCOc5c(OC)cccc5OC)c41)-c1c(CCCCOc4c(OC)cccc4OC)ccc(CCCCOc4c(OC)cccc4OC)c1-3)c1c(CCCCOc3c(OC)cccc3OC)ccc(CCCCOc3c(OC)cccc3OC)c21.[O]=[V+2] [Specific Example (1)-44]
